# According to ChEMBL document CHEMBL1921798, “Discovery of a potent, selective, and orally available class I phosphatidylinositol 3-kinase (PI3K)/mammalian target of rapamycin (mTOR) kinase inhibitor (GDC-0980) for the treatment of cancer” (J Med Chem, 2011):
# Columns and labels:
# [1] = in vivo; settings: beagle, dog, plasma, iv, 1 mg/kg
# [2] = in vivo; settings: Sprague-Dawley, rat, plasma, iv, 1 mg/kg
# [3] = in vivo; settings: Sprague-Dawley, rat, po, 1 mg/kg
# [4] = in vitro; settings: human, plasma
# Description: Plasma protein binding in human
# [5] = physchem; settings: buffer, pH 6.5
# Description: Thermodynamic solubility of the compound at pH 6.5
# [6] = target: T1, Phosphatidylinositol 4,5-bisphosphate 3-kinase catalytic subunit delta isoform (Homo sapiens, UniProt O00329)
# T1 sequence (O00329 whole entry): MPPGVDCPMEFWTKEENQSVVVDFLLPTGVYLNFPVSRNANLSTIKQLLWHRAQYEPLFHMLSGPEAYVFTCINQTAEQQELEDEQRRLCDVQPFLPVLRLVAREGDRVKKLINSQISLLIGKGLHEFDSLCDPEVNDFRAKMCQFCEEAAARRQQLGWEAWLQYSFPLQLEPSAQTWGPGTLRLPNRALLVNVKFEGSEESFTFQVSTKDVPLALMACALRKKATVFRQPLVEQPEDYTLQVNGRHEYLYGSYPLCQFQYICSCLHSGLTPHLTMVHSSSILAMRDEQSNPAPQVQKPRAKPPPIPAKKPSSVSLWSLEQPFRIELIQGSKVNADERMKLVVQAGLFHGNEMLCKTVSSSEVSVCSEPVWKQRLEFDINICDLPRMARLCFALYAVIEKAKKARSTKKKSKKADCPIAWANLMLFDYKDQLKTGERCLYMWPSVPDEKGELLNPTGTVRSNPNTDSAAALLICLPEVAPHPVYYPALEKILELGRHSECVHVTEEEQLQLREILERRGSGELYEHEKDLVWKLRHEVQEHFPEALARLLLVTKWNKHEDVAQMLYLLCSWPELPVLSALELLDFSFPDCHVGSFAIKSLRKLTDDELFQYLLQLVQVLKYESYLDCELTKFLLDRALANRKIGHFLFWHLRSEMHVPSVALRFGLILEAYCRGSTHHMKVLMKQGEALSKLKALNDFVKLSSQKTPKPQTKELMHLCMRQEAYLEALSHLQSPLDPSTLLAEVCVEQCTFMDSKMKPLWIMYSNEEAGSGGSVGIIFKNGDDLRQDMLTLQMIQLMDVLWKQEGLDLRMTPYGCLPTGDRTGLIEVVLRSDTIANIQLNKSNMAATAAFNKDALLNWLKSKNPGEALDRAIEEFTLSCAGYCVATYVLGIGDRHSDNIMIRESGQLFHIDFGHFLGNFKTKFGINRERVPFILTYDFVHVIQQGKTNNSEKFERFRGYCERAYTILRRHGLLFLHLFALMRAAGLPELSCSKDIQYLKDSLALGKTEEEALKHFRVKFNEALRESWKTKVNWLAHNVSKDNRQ
# [7] = target: Phosphatidylinositol 4,5-bisphosphate 3-kinase catalytic subunit gamma isoform (Homo sapiens, UniProt P48736)
# Chain of Phosphatidylinositol 4,5-bisphosphate 3-kinase catalytic subunit gamma isoform (P48736 whole entry, canonical isoform): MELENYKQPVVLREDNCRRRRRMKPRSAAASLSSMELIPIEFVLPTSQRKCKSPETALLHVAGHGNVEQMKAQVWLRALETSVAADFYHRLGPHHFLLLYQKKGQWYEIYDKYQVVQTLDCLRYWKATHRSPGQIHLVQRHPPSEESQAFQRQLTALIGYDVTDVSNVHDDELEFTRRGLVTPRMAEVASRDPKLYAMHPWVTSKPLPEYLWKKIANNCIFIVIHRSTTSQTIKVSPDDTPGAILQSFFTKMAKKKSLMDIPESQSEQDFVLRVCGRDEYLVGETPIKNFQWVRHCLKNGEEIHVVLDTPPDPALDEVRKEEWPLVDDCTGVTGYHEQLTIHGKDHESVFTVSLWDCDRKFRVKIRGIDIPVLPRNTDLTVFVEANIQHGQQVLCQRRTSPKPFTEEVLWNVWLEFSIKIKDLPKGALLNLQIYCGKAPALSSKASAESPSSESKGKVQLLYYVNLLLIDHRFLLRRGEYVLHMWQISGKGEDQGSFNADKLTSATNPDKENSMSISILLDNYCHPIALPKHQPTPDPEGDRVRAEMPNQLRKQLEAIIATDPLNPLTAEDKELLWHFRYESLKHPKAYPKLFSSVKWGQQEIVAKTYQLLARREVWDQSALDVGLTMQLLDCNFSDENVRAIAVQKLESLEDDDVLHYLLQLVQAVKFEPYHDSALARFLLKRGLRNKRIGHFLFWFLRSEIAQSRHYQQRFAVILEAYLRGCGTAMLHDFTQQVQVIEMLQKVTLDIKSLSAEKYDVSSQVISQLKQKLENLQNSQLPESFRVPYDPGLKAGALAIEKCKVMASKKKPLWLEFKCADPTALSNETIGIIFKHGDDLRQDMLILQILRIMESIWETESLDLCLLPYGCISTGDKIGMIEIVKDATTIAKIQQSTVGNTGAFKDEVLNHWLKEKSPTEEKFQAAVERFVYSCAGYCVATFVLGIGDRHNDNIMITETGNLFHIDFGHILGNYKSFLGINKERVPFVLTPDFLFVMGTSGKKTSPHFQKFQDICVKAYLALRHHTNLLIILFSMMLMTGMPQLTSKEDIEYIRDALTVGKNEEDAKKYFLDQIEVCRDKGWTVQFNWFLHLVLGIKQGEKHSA
# [8] = target: Serine/threonine-protein kinase mTOR (Homo sapiens, UniProt P42345)
# Description: Inhibition of human recombinant mTOR expressed in insect cells assessed as phosphorylation of recombinant (GFP)-4-EBP1 measured after 30 mins by fluorescence polarization assay
# [9] = target: Phosphatidylinositol 4,5-bisphosphate 3-kinase catalytic subunit beta isoform (Homo sapiens, UniProt P42338)
# Chain of Phosphatidylinositol 4,5-bisphosphate 3-kinase catalytic subunit beta isoform (P42338 whole entry, canonical isoform): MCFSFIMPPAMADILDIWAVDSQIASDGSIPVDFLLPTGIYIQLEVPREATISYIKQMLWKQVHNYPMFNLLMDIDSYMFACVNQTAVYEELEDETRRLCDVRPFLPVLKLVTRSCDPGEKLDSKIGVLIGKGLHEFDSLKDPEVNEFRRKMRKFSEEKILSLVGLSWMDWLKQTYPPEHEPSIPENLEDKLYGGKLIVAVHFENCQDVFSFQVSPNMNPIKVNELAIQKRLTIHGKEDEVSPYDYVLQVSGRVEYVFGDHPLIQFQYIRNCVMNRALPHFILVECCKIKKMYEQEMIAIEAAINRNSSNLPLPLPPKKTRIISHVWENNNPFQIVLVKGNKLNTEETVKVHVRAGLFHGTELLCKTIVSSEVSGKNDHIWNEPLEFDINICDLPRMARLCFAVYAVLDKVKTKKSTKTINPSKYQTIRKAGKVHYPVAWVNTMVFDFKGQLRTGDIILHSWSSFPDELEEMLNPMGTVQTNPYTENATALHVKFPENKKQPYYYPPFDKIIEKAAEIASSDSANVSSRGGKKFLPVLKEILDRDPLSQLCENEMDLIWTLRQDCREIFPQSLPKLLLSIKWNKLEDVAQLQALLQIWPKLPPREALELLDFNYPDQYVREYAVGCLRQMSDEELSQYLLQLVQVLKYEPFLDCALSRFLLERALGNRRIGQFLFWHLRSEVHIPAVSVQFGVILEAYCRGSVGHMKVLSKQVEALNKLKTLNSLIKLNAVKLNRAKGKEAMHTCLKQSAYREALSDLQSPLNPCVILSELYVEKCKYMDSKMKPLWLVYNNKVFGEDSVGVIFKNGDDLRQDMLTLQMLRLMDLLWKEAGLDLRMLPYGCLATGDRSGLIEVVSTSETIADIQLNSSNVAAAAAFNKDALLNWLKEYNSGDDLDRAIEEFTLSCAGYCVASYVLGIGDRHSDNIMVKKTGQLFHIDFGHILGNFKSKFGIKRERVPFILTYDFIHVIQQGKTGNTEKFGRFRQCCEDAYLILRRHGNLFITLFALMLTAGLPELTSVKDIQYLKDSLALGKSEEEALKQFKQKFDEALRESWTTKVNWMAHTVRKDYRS
# Description: Inhibition of PI3K subunit p110beta assessed as formation of phosphatidylinositide-3-phosphate product formation after 30 mins by fluorescence polarization assay
# [10] = target: Phosphatidylinositol 4,5-bisphosphate 3-kinase catalytic subunit alpha isoform (Homo sapiens, UniProt P42336)
# Chain of Phosphatidylinositol 4,5-bisphosphate 3-kinase catalytic subunit alpha isoform (P42336 whole entry, canonical isoform): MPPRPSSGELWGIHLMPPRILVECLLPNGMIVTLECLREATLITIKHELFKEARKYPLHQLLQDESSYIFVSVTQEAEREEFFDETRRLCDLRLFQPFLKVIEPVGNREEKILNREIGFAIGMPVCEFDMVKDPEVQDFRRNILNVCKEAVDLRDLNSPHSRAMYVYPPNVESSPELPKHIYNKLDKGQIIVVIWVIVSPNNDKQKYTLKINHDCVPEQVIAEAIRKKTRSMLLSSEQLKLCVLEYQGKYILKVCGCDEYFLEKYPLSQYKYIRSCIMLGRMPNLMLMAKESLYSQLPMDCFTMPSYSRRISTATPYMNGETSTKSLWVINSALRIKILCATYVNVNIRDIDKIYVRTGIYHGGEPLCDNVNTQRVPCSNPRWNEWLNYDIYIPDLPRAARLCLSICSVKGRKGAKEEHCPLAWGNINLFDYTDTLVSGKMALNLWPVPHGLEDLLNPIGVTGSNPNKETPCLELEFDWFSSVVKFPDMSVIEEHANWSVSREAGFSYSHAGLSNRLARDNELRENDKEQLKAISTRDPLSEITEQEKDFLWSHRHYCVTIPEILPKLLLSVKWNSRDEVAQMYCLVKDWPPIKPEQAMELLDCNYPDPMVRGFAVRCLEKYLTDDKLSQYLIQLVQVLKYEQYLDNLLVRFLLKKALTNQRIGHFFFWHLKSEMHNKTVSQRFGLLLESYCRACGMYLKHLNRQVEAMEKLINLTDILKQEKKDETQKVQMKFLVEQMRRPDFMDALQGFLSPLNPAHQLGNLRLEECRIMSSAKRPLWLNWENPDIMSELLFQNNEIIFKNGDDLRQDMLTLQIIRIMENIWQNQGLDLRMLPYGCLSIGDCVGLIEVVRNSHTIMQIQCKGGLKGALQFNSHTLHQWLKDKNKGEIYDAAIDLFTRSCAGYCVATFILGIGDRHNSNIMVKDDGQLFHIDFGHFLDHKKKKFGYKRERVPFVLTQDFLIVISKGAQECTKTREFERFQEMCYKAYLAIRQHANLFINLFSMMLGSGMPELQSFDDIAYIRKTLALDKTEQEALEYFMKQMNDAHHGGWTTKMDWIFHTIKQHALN
# Description: Inhibition of PI3K subunit p110alpha assessed as formation of phosphatidylinositide-3-phosphate product formation after 30 mins by fluorescence polarization assay
# [11] = physchem; settings: octanol/water
# Description: Lipophilicity, log D of the compound
SMILES,clearance [2],solubility thermodynamic [5],IC50 [6],IC50 [7],IC50 [9],further results
Cc1c(CN2CCN(S(C)(=O)=O)CC2)sc2c(N3CCOCC3)nc(-c3cnc(N)nc3)nc12.Cl,,,,,,clearance [1]: 5 mL/min/kg
Cc1c(CN2CCN(C(=O)C(C)(C)N)CC2)sc2c(N3CCOCC3)nc(-c3cnc(N)nc3)nc12.O=C(O)C(F)(F)F,84 mL/min/kg,,,,,bioavailability [3]: 6%
Cc1c(CN2CCN(S(C)(=O)=O)CC2)sc2c(N3CCOCC3)nc(-c3cnc(N)nc3)nc12.O=C(O)C(F)(F)F,13 mL/min/kg,,,,,
Cc1c(CN2CCN(S(C)(=O)=O)CC2)sc2c(N3CCOCC3)nc(-c3cnc(N)nc3)nc12,,9 µg/mL,,,,fraction unbound [4]: 0.23
Cc1c(CN2CCN(C(=O)[C@H](C)N)CC2)sc2c(N3CCOCC3)nc(-c3cnc(N)nc3)nc12,,,2.4 nM,37 nM,29 nM,Ki [8]: 6.3 nM
Cc1c(CN2CCN(C(=O)CN)CC2)sc2c(N3CCOCC3)nc(-c3cnc(N)nc3)nc12.O=C(O)C(F)(F)F,140 mL/min/kg,,,,,bioavailability [3]: 0%
Cc1c(CN2CCN(C(=O)CO)CC2)sc2c(N3CCOCC3)nc(-c3cnc(N)nc3)nc12,,,5.6 nM,10 nM,19 nM,Ki [10]: 2.8 nM
Cc1c(CN2CCN(C(=O)C(C)(C)N)CC2)sc2c(N3CCOCC3)nc(-c3cnc(N)nc3)nc12,,1000 µg/mL,1.5 nM,20 nM,44 nM,Ki [8]: 14 nM
Cc1c(CN2CCN(C(=O)C(C)(C)O)CC2)sc2c(N3CCOCC3)nc(-c3cnc(N)nc3)nc12,,600 µg/mL,5 nM,25 nM,45 nM,Ki [8]: 14 nM
Cc1c(CN2CCN(C(=O)CN)CC2)sc2c(N3CCOCC3)nc(-c3cnc(N)nc3)nc12,,690 µg/mL,4.3 nM,17 nM,11 nM,IC50 [10]: 0.7 nM; Ki [8]: 12 nM
CS(=O)(=O)N1CCN(Cc2cc3nc(-c4cnc(N)nc4)nc(N4CCOCC4)c3s2)CC1,,24 µg/mL,,,,logD [11]: 1.3; fraction unbound [4]: 0.49
CS(=O)(=O)N1CCN(Cc2cc3nc(-c4cnc(N)nc4)nc(N4CCOCC4)c3s2)CC1.O=C(O)C(F)(F)F,24 mL/min/kg,,,,,
CS(=O)(=O)N1CCN(Cc2cc3nc(-c4cnc(N)nc4)nc(N4CCOCC4)c3s2)CC1.Cl,,,,,,clearance [1]: 22 mL/min/kg
Cc1c(CN2CCN(C(=O)C(C)(C)O)CC2)sc2c(N3CCOCC3)nc(-c3cnc(N)nc3)nc12.O=C(O)C(F)(F)F,24 mL/min/kg,,,,,bioavailability [3]: 71%
